Experiments:
cortical neuron cells = assay: Protective effect on iron-induced neuronal cell injury (LDH release); assay type: cell-based; details: FeSO4 50 μM; for protective effect on neuron cell: Inhibition (%, 30 μM compound addition): LDH reduction vs control; for IC50: LDH
Outline: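 Embryonic (day 17–18) cortical neurons cultured 7–9 days, serum lowered to 0.2%, pretreated 30 min with compound (DMSO ≤0.1%), then exposed to 50 μM FeSO4 for 24 h. LDH released to medium measured; protection expressed as LDH reduction versus vehicle control.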

brain homogenate = assay: Inhibitory effect against lipid peroxidation by iron (MDA quantification); assay type: biochemical, rat; details: 100 μM compound, FeCl2 400 μM, 37° C. 30 min
Experimental: The rat brain was homogenized in a Krebs buffer (15 mM HEPES, 10 mM glucose, 140 mM NaCl, 3.6 mM KCl, 1.5 mM CaCl2, 1.4 mM KH2PO4, 0.7 mM MgCl2, PH 7.4) and the supernatant separated by centrifugation at 12,000 rpm for 10 min was used for further experiments. FeCl2 was added for the final concentration to be 400 μM. Then the brain homogenate was allowed to stand at 37° C. for 30 min for the facilitation of oxidation. Each of the test compounds was added at a concentration of 100 μM. For control group, only vehicle was applied.
Iron facilitates the oxidation of the said brain homogenate to produce malondialdehyde (MDA), lipid peroxidation product. Thus, the lipid peroxidation was determined by MDA quantification. The inhibitory effect against lipid peroxidation of the test compounds was evaluated by calculating MDA reduction rate of the test compounds compared with that of the control group.
Typically, the MDA quantification is achieved by reacting samples with 2-thiobarbituric acid (TBA) and measuring the absorbance at 530 nm. However, this method is unsuitable to treat samples on a large scale because of a boiling step. Thus, in this experiment, N-methyl-2-phenylindole was used instead of TBA.

[1] = Acute oral toxicity test in rats; details: SD, rat, in vivo, single oral dose, suspended in 0.5% methyl cellulose, read-out: lethal dose (LD50) for oral administration
Experimental: In this test, six-week old SPF SD rats were used with two rats assigned to each group. Each group was consisted of two rats. The compounds prepared in example 1, 7, 11, 17, 22, 24, 26, 28, 30, 32, 34, 42, 52, 54, 55, 56, 57, 59, 60, 61, 70, 75, 77, 79, 81, 83, 85, and 89 were suspended in 0.5% methyl cellulose, respectively. […] Also, hematological test and biochemical analysis were accomplished. After sacrificing the animals, autopsy was performed for macroscopic observations of the organs and tissues. As a result, there was no significant changes in clinical symptoms, body weight and mortalities. Also in hematology, serum chemistry parameters, macroscopic observation and drug-related changes were not observed.

isolated rat aorta = assay: Vasodilating effect on blood vessel excised from rats (methoxamine-constricted aorta); details: isolated rat aorta constricted with methoxamine (3 μM); read-out: Concentration for inhibition of constriction induced by methoxamine in rat arota (IC50)
From the text: Rats (350˜450 g, obtained from the Experimental Animal Team of the Korea Research Institute of Chemical Technology) were knocked to be unconscious by hitting the occipital region, sacrificed by cervical dislocation, and underwent thoracotomy. After being quickly removed, the thoracic aorta was deprived of the adipose tissue and cut into aortic rings of 3 mm width. The aorta was lightly rubbed with cotton club soaked in a modified Krebs Henseleit buffer (Physiological salt solution) to remove the inner epithelial layer therefrom. While being hung in an organ bath containing a physiological buffer, the vascular smooth muscle was allowed to equilibrate under a resting tension of 2 g and then, stand for 1 hour at 37° C. for stabilization, supplying a carbogen consisting of 95% O2˜5% CO2.
Thereafter, the vascular smooth muscle was constricted with 10^−5M phenylephrine and washed several times with physiological saline solution. The said procedure was repeated again to ensure the stable reactivity of vascular smooth muscle to repetitive constriction/relaxation.
Thereafter, 3×10^−6 M methoxamine was applied to induce an intensive constriction in the vascular smooth muscle. When the vasoconstriction induced by the methoxamine was reached and maintained to a maximum, test compounds and control material was cumulatively added to the organ bath in concentration of 1, 3, 10 and 30 μM, respectively, to examine the vasodilating effect. Cromakalim, BMS-180448 (the compound of formula 4) and BMS-191095 (the compound of formula 5), known to be the first generation KATP opener with potent vasodilating effect were used as control materials.
The change rate of constriction by the addition of the drugs compared to the maximal constriction induced by methoxamine was calculated to plot a concentration-relaxation response curve. Through a least linear regression analysis, IC50 that the drug concentration at which the vascular tissue is relaxed to 50% extent of the maximal constriction, was obtained for each drug.

[2] = tested on: isolated ischemic rat heart; assay: Cardioprotective effect in ischemic heart models of rats (Langendorff); details: 10 μM; for EDP (mmHg): after 30 min global ischemia and reperfusion; for LDH (u/g): reperfusion LDH release; for LVDP X HR (%): reperfusion, % of pre-treatment DP; for TTC: time to contracture during global ischemia
Experimental: Male rats (300˜450 g, obtained form the experimental animal team of the Korea Research Institute of Chemical Technology) were anaesthetized by the intra-peritoneal injection of sodium pentobarbital at a dose of 100 mg/kg. Heparin (1,000 U/kg) was injected to the tail vein and then the heart was enucleated. Particularly, cannula (PE 240) was inserted to the organ. Rats were mechanically ventilated with a rodent ventilator, in situ aorta cannula was inserted into their aorta. In retorograde perfusion, their hearts were enucleated, then just hung onto Langendorff Apparatus. Tissue attached at the heart was removed. Heart was perfused in oxygenated modified Krebs-Henseleit bicarbonate buffer (composition<mM/L>116 NaCl, 4.7 KCl, 1.1 MgSO4, 1.17 KH2PO4, 24.9 NaHCO3, 2.52 CaCl2, 8.32 Glucose, 2.0 Pyruvate) at a constant perfusion pressure (85 mmHg). A metal cannula attached to latex balloon filled with solvent (ethanol: water=1:1 (v/v)) was placed in the left ventricle through pulmonary vein and connected to a isovolumetric pressure transducer (H.S.E., Germany) for measurement of left ventricular pressure (LVP). The hearts were allowed to equilibrate for 15 min, at which time left ventricular end-diastolic pressure (EDP) was adjusted to 5 mmHg and this balloon volume was maintained throughout the experiment.
Baseline cardiac contractile function, heart rate (HR), and coronary flow (CF) were measured. Cardiac contractile function was calculated by […], yielding LVDP (left ventricular developed pressure). Double product RPP (rate-pressure product) (DP), another important parameter for indirectly assessing cardiac performance in Langendorff heart impossible to measure cardiac output was calculated by multiplying HR by LVDP.
Throughout the experiment, total coronary blood flow was measured by the use of coronary flow probe (diameter: 1.0 mm) installed in aortic cannula with electromagnetic flowmeter. Temperature of heart was steadily maintained by immersing the heart at 37° C. in physiological saline solution to which 95% O2/5% CO2 was constantly supplied. After stabilization for 15 min, the hearts were pre-treated for 10 min in vehicle (0.04% DMSO) or mixture containing the compound of the present invention or control material. Thereafter, cardiac contractile function, HR and CF were repeatedly measured. Global ischemia was induced by completely shutting off the perfusate for 30 min. Severity of ischemia was determined as the time to contracture (TTC, min) during global ischemia in which the first 5 mmHg increase in EDP was observed. Then, the hearts were reperfused and, 30 min later, contractile functions (LVDP, HR and CF) was repeatedly measured. After reperfusion was accomplished for 30 min, LDH (lactate dehydrogenase) was measured as a sensitive index for loss of cell viability with a kit.

Question: Which results are given for COC(OC)[C@@]1(C)Oc2ccc(N)cc2[C@H](N(Cc2nnn(C)n2)c2ccc(F)cc2)[C@H]1O [Example 56, (2S,3R,4S)-6-amino-4-[N-(4-fluorophenyl)-N-(2-methyl-2H-tetrazol-5-ylmethyl)amino]-3-hydroxy-2-methyl-2-dimethoxymethyl-3,4-dihydro-2H-1-benzopyran]?
Answer: protective effect on neuron cell: Inhibition (%, 30 μM compound addition) (cortical neuron cells; 24 hours): 100%; IC50 (cortical neuron cells; Cortical neurone, 24 h): 5300 nM; inhibitory effect against lipid peroxidation induced by iron (%, 100 μM) (brain homogenate): 76%; LD50 [1]: > 2000 mg/kg

Question: What does the source list for COC(OC)[C@@]1(C)Oc2ccc(N)cc2[C@@H](N(Cc2nnnn2C)c2ccc(Cl)cc2)[C@@H]1O [Example 17, (2S,3S,4R)-6-amino-4-[N-(4-chlorophenyl)-N-(1-methyl-1H-tetrazol-5-ylmethyl)amino]-3-hydroxy-2-methyl-2-dimethoxymethyl-3,4-dihydro-2H-1-benzopyran]?
Answer: IC50 (isolated rat aorta): > 30000 nM; protective effect on neuron cell: Inhibition (%, 30 μM compound addition) (cortical neuron cells; 24 hours): 110%; IC50 (cortical neuron cells; Cortical neurone, 24 h): < 2000 nM; IC50 (cortical neuron cells; 24 hours): 2000 nM; inhibitory effect against lipid peroxidation induced by iron (%, 100 μM) (brain homogenate): 87%; LD50 [1]: > 2000 mg/kg

Question: Which “protective effect on neuron cell: Inhibition (%, 30 μM compound addition)” value (cortical neuron cells; 24 hours) does the source give for COC(OC)[C@@]1(C)Oc2ccc(N)cc2[C@H](N(Cc2nnn(C)n2)c2ccccc2Cl)[C@H]1O [Example 30, (2S,3R,4S)-6-amino-4-[N-(2-chlorophenyl)-N-(2-methyl-2H-tetrazol-5-ylmethyl)amino]-3-hydroxy-2-methyl-2-dimethoxymethyl-3,4-dihydro-2H-1-benzopyran] here?
Answer: Its value is 103%.

Question: And the “inhibitory effect against lipid peroxidation induced by iron (%, 100 μM)” value (“inhibitory effect … (%, 100 μM)” for short) (brain homogenate)?
Answer: The value was 84%.

Question: And the “EDP (mmHg)” value [2]?
Answer: Its value is 17.0 mmHg.

Question: What about the “LDH (u/g)” value [2] of the same molecule?
Answer: The value was 15.7 u/g.

Question: What about the “LVDP X HR (%)” value [2] of the same molecule?
Answer: Its value is 64.7%.

Question: And the “TTC” value [2]?
Answer: The value was 27.9 min.

Question: And the LD50 [1]?
Answer: The LD50 was > 2000 mg/kg.

Question: Which “protective effect on neuron cell: Inhibition (%, 30 μM compound addition)” value (cortical neuron cells; 24 hours) does the source give for COC(OC)[C@@]1(C)Oc2ccc(N)cc2[C@H](N(Cc2nnn(C)n2)c2ccccc2C(C)C)[C@H]1O [Example 52, (2S,3R,4S)-6-amino-4-[N-(2-isopropylphenyl)-N-(2-methyl-2H-tetrazol-5-ylmethyl)amino]-3-hydroxy-2-methyl-2-dimethoxymethyl-3,4-dihydro-2H-1-benzopyran] here?
Answer: The value was 91%.

Question: And the IC50 (cortical neuron cells; Cortical neurone, 24 h)?
Answer: Its IC50 is 3000 nM.

Question: And the “inhibitory effect … (%, 100 μM)” value (brain homogenate)?
Answer: The value was 88%.

Question: And the LD50 [1]?
Answer: Its LD50 is > 2000 mg/kg.

Question: Which results are given for COC(OC)[C@@]1(C)Oc2ccc(N)cc2[C@H](N(Cc2nnn(C)n2)c2ccc(Cl)cc2C)[C@H]1O [Example 42, (2S,3R,4S)-6-amino-4-[N-(2-methyl-4-chlorophenyl)-N-(2-methyl-2H-tetrazol-5-ylmethyl)amino]-3-hydroxy-2-methyl-2-dimethoxymethyl-3,4-dihydro-2H-1-benzopyran]?
Answer: protective effect on neuron cell: Inhibition (%, 30 μM compound addition) (cortical neuron cells; 24 hours): 103%; IC50 (cortical neuron cells; Cortical neurone, 24 h): 2600 nM; inhibitory effect against lipid peroxidation induced by iron (%, 100 μM) (brain homogenate): 85%; LD50 [1]: > 2000 mg/kg

Question: Which results are given for COC(OC)[C@@]1(C)Oc2ccc(N)cc2[C@@H](N(Cc2nnn(C)n2)c2ccc(OC(F)(F)F)cc2)[C@@H]1O [Example 81, (2S,3S,4R)-6-amino-4-[N-(4-trifluoromethoxyphenyl)-N-(2-methyl-2H-tetrazol-5-ylmethyl)amino]-3-hydroxy-2-methyl-2-dimethoxymethyl-3,4-dihydro-2H-1-benzopyran]?
Answer: IC50 (isolated rat aorta): > 30000 nM; protective effect on neuron cell: Inhibition (%, 30 μM compound addition) (cortical neuron cells; 24 hours): 120%; IC50 (cortical neuron cells; Cortical neurone, 24 h): < 2000 nM; IC50 (cortical neuron cells; 24 hours): 1500 nM; inhibitory effect against lipid peroxidation induced by iron (%, 100 μM) (brain homogenate): 89%; LD50 [1]: > 2000 mg/kg

Question: For COC(=O)c1cccc(N(Cc2nnn(C)n2)[C@H]2c3cc(N)ccc3O[C@](C)(C(OC)OC)[C@@H]2O)c1 [Example 59], which “protective effect on neuron cell: Inhibition (%, 30 μM compound addition)” value (cortical neuron cells; 24 hours) is on record?
Answer: The value was 77%.

Question: And the IC50 (cortical neuron cells; Cortical neurone, 24 h)?
Answer: The IC50 was < 2000 nM.

Question: And the IC50 (cortical neuron cells; 24 hours)?
Answer: The IC50 was 1800 nM.

Question: What about the “inhibitory effect … (%, 100 μM)” value (brain homogenate) of the same molecule?
Answer: The value was 70%.

Question: And the LD50 [1]?
Answer: The LD50 was > 2000 mg/kg.

Question: For COC(OC)[C@@]1(C)Oc2ccc(N)cc2[C@H](N(Cc2nnn(C)n2)c2ccc(OC(F)(F)F)cc2)[C@H]1O [Example 32, (2S,3R,4S)-6-amino-4-[N-(4-trifluoromethoxyphenyl)-N-(2-methyl-2H-tetrazol-5-ylmethyl)amino]-3-hydroxy-2-methyl-2-dimethoxymethyl-3,4-dihydro-2H-1-benzopyran], which IC50 (isolated rat aorta) is on record?
Answer: The IC50 was > 30000 nM.

Question: What about the “protective effect on neuron cell: Inhibition (%, 30 μM compound addition)” value (cortical neuron cells; 24 hours) of the same molecule?
Answer: Its value is 108%.

Question: What about the IC50 (cortical neuron cells; Cortical neurone, 24 h) of the same molecule?
Answer: Its IC50 is < 2000 nM.

Question: And the IC50 (cortical neuron cells; 24 hours)?
Answer: Its IC50 is 1600 nM.

Question: And the “inhibitory effect … (%, 100 μM)” value (brain homogenate)?
Answer: Its value is 89%.

Question: What about the “EDP (mmHg)” value [2] of the same molecule?
Answer: The value was 17.0 mmHg.

Question: And the “LDH (u/g)” value [2]?
Answer: The value was 15.7 u/g.

Question: What about the “LVDP X HR (%)” value [2] of the same molecule?
Answer: Its value is 64.7%.

Question: And the “TTC” value [2]?
Answer: The value was 27.9 min.

Question: And the LD50 [1]?
Answer: Its LD50 is > 2000 mg/kg.
